Measurements from article PMC12678836, “Screening for dual-target enzyme inhibitors derived from Gardenia jasminoides roots, a medicinal and edible plant: investigation of their potential anti-dementia activity” (Frontiers in Nutrition, 2025).
Where two headings read alike, the source gives them in different places.

Key:
AChE [1] = target: T1, AChE (Musca domestica, UniProt A0ABM3VDL1); test: Affinity ultrafiltration-HPLC binding degree to AChE; design: species or system fly; details: GJR extract, 37 °C 30 min
T1 sequence (A0ABM3VDL1 81-660): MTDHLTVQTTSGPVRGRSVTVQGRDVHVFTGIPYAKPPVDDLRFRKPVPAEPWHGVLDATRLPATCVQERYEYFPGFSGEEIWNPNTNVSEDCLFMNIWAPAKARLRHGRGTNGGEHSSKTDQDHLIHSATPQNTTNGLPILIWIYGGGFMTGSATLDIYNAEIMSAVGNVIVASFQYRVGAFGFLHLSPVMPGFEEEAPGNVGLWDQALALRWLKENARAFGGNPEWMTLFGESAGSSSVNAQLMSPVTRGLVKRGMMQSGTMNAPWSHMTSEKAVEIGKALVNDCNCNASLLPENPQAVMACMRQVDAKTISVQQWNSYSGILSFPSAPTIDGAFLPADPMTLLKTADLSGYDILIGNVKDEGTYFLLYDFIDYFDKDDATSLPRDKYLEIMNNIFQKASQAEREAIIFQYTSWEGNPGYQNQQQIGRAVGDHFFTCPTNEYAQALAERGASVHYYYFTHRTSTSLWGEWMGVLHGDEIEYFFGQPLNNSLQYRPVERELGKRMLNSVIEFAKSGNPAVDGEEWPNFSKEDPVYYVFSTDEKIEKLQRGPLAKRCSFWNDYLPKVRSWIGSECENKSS
Experimental: (§1) A total of 300 g of GJR was accurately weighed, dried, and ground into a fine powder using a mechanical grinder. The powdered material was extracted with 60% ethanol (v/v) at a solvent-to-solid ratio of 20:1 (v/v). Each extraction cycle involved ultrasonication for 1 h and was performed twice to ensure exhaustive extraction. The combined extracts were concentrated to dryness by rotary evaporation under reduced pressure, yielding 6.75 g of crude extract. A 50 mg portion of the crude extract was accurately weighed, dissolved in 50% methanol–water (v/v), and diluted to a final concentration of 50 mg/ml to obtain a stock solution for subsequent experiments. All procedures were conducted under controlled laboratory conditions to ensure consistency and reproducibility.
(§2) The screening assay consisted of two groups: a blank control and an experimental group, both prepared in phosphate-buffered saline (PBS). In the experimental group, 10.0 μl of the sample solution was mixed with 90.0 μl of either 5-lipoxygenase (5-LOX) and acetylcholinesterase (AChE) at final concentrations of 0.5, 1.0, or 2.0 U/ml, along with 100 μl of PBS (pH 7.4), resulting in a total volume of 200 μl. The mixture was incubated at 37 °C for 30 min and subsequently filtered through a 100 kDa ultrafiltration membrane by centrifugation at high speed for 10 min. The supernatant was discarded, and the membrane was washed three times with PBS to remove free or non-specifically bound compounds. Then, 150 μl of 50% methanol–water was added to denature the proteins and release the bound small molecules. For the blank control, the enzyme solution was replaced with an equal volume of PBS, while all other experimental conditions remained the same. The resulting eluate was analyzed by HPLC. The binding degree (BD) was used to quantify the interaction between compounds and the target enzymes. It was calculated based on the increase in chromatographic peak area of enzyme-bound compounds, using the following formula: […]

5-LOX [2] = target: T2, 5-LOX (Glycine max, UniProt P08170); test: Affinity ultrafiltration-HPLC binding degree to 5-LOX; details: GJR extract, 37 °C 30 min
T2 sequence (P08170 1-839): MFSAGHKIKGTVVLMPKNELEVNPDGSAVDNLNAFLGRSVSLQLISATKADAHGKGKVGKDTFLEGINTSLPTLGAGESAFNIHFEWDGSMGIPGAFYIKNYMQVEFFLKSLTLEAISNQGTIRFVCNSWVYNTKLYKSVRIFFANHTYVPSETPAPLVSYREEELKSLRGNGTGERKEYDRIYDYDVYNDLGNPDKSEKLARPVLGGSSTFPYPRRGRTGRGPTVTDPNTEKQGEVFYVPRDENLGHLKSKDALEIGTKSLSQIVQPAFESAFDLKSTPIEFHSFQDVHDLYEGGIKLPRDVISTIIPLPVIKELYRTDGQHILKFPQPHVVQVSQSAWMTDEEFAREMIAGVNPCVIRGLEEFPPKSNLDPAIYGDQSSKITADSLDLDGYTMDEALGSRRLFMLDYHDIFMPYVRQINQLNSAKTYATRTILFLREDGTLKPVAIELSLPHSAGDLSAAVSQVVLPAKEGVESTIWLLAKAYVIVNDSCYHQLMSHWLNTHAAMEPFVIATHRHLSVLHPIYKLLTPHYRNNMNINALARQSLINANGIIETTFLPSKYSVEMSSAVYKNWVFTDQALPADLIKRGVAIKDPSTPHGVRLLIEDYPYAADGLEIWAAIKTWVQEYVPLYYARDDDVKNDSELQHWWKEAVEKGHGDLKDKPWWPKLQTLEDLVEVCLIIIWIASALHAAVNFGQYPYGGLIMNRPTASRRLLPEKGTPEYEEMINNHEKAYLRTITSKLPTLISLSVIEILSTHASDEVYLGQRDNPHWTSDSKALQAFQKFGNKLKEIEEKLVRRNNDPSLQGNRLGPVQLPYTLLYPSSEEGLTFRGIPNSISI
Experimental: as §1, §2

AChE [3] = target: T1, AChE
Experimental: Acetylcholinesterase (AChE, EC 3.2.1.20) was extracted from fly heads.
All reagents were prepared with 0.05 mol/L phosphate buffer solution at pH 6.8. […] Before use, it was diluted to 0, 5, 10, 15, and 20 × 10^−5 mol/L. 5-LOX and linoleic acid were, respectively prepared at concentrations of 2.08 × 10^−7 and 5.0 × 10^−4 mol/L. AChE and iodinated thioacetylcholine were prepared using the same method.
The mixture was incubated for 10 min at 37 °C in a thermostatic water bath to form the enzyme reaction solution, followed by the addition of linoleic acid (5.0 × 10^−4 mol/L) as the substrate. […] For the AChE assay, 0.1 ml of DTNB solution was included in the reaction mixture and incubated under the same conditions as those used in the 5-LOX experiment, while all other procedural steps remained identical. The control group was not supplemented with samples, while the blank group received an equal volume of buffer solution in place of the enzyme solution. […] Enzyme activity in the absence of any inhibitor was regarded as 100%.
By analyzing the correlation between reaction rate and enzyme concentration, a kinetic curve was generated.
Data analysis was carried out using Origin 8.0 software through one-way ANOVA, with each sample group subjected to three independent replicate experiments (p < 0.05).

5-LOX [4] = target: T2, 5-LOX; test: 5-LOX enzyme inhibition and inhibition kinetics (linoleic acid substrate, HPLC); format: biochemical; details: Lineweaver-Burk / rate vs enzyme concentration
Source text: Galantamine served as the positive control.

SMILES	BD (binding degree) with AChE (AChE [1]; AChE 0.5 U/ml)	BD (binding degree) with AChE (AChE [1]; AChE 1.0 U/ml)	BD (binding degree) with AChE (AChE [1]; AChE 2.0 U/ml)	BD (binding degree) with 5-LOX (5-LOX [2]; 5-LOX 0.5 U/ml)	BD (binding degree) with 5-LOX (5-LOX [2]; 5-LOX 1.0 U/ml)	BD (binding degree) with 5-LOX (5-LOX [2]; 5-LOX 2.0 U/ml)	Kis, AChE (AChE [3]; Lineweaver-Burk)	Inhibition type for AChE (AChE [3]; concentration exceeds 10 × 10^−5 mol/L)	Inhibition type for AChE (AChE [3]; concentrations below 5 × 10^−5 mol/L)	Inhibition type for AChE (AChE [3]; overall statement in conclusion)	Inhibition type for 5-LOX (5-LOX [4])	Inhibition type for 5-LOX (5-LOX [4]; listed as mussaenoside acid)
COc1cc(C2OCC3C(c4cc(OC)c(OC5OC(CO)C(O)C(O)C5O)c(OC)c4)OCC23)cc(OC)c1OC1OC(CO)C(O)C(O)C1O (stereo not drawn) [Eleutheroside E]	12.19%	21.06%	69.87%	38.17%	55.16%	59.44%						
C[C@]1(O)CC[C@@H]2C(C(=O)O)=CO[C@@H](O[C@@H]3O[C@H](CO)[C@@H](O)[C@H](O)[C@H]3O)[C@@H]21 [Mussaenoside acid]							102.08	mixed-type inhibition	competitive inhibition	mixed-type inhibition	competitive inhibition	reversible inhibition
